Measurements: publication PMC3794980, “Identification of Conserved and HLA Promiscuous DENV3 T-Cell Epitopes” (PLoS Neglected Tropical Diseases, 2013)

Legend:
Experiment in all cases: biochemical
Assay type in all cases: binding
DRB5*0101 = DRB5*0101 (Homo sapiens, UniProt P01903+Q30154)
DRB3*0101 = DRB3*0101 (Homo sapiens, UniProt P01903+P79483)
DRB4*0101 = DRB4*0101 (Homo sapiens, UniProt P01903+P13762, G164S)

| Structure (SMILES) | IC50 (DRB5*0101) [nM] | IC50 (DRB3*0101) [nM] | IC50 (DRB4*0101) [nM] |
| --- | --- | --- | --- |
| CC[C@H](C)[C@H](NC(=O)CNC(=O)[C@H](CO)NC(=O)[C@H](CCCCN)NC(=O)[C@H](CCCCN)NC(=O)[C@H](Cc1ccc(O)cc1)NC(=O)[C@H](CC(C)C)NC(=O)[C@H](CC(=O)O)NC(=O)[C@H](Cc1ccccc1)NC(=O)[C@H](CCC(=O)O)NC(=O)[C@@H](N)CCCCN)C(=O)N[C@H](C(=O)N[C@@H](CCC(=O)O)C(=O)N[C@H](C(=O)N[C@@H](CC(=O)O)C(=O)N[C@@H](CCCNC(=N)N)C(=O)N[C@H](C(=O)O)[C@@H](C)O)C(C)C)[C@@H](C)O [NS5 23-39] | 10100 | 5800 | 3430 |
| CC[C@H](C)[C@H](NC(=O)[C@H](CCC(=O)O)NC(=O)CNC(=O)[C@H](CCCNC(=N)N)NC(=O)[C@H](CCCCN)NC(=O)[C@@H](N)CC(C)C)C(=O)N[C@H](C(=O)N[C@@H](Cc1c[nH]cn1)C(=O)N[C@@H](Cc1c[nH]cn1)C(=O)N[C@@H](C)C(=O)N[C@H](C(=O)N[C@@H](CO)C(=O)N[C@@H](CCCNC(=N)N)C(=O)NCC(=O)N[C@@H](CO)C(=O)N[C@@H](C)C(=O)N[C@@H](CCCCN)C(=O)O)C(C)C)[C@@H](C)O [NS5 45-61] | 449 | 7500 | 8.5 |
| CC[C@H](C)[C@H](NC(=O)[C@H](CS)NC(=O)[C@H](Cc1ccccc1)NC(=O)[C@H](CCC(N)=O)NC(=O)[C@@H](N)CC(N)=O)C(=O)N[C@@H](CCCCN)C(=O)N[C@H](C(=O)N[C@@H](CC(C)C)C(=O)N[C@@H](CC(N)=O)C(=O)N1CCC[C@H]1C(=O)N[C@@H](Cc1ccc(O)cc1)C(=O)N[C@@H](CCSC)C(=O)N1CCC[C@H]1C(=O)N[C@H](C(=O)N[C@H](C(=O)N[C@H](C(=O)N[C@@H](CCC(=O)O)C(=O)O)[C@@H](C)CC)C(C)C)[C@@H](C)O)C(C)C [NS5 175-191] | 722 | 1340 | 6640 |
| CC[C@H](C)[C@H](NC(=O)[C@H](CCCNC(=N)N)NC(=O)[C@H](CCCCN)NC(=O)[C@@H](NC(=O)[C@H](CCCNC(=N)N)NC(=O)[C@H](CCC(=O)O)NC(=O)CNC(=O)[C@@H](NC(=O)[C@@H](NC(=O)[C@H](CC(=O)O)NC(=O)[C@H](CCSC)NC(=O)[C@H](CC(N)=O)NC(=O)[C@@H]1CCCN1C(=O)[C@@H](NC(=O)[C@H](CCC(=O)O)NC(=O)[C@@H]1CCCN1)[C@@H](C)O)C(C)C)[C@@H](C)CC)[C@@H](C)CC)C(=O)N[C@@H](CCCCN)C(=O)O [NS5 268-284] | 2830 | 1390 | 869 |
| CSCC[C@H](NC(=O)[C@H](CCSC)NC(=O)[C@H](CC(N)=O)NC(=O)[C@H](Cc1ccc(O)cc1)NC(=O)[C@@H](NC(=O)[C@H](CS)NC(=O)[C@H](CO)NC(=O)CN)C(C)C)C(=O)NCC(=O)N[C@@H](CCCCN)C(=O)N[C@@H](CCCNC(=N)N)C(=O)N[C@@H](CCC(=O)O)C(=O)N[C@@H](CCCCN)C(=O)N[C@@H](CCCCN)C(=O)N[C@@H](CC(C)C)C(=O)NCC(=O)N[C@@H](CCC(=O)O)C(=O)O [NS5 447-463] | 25 | 1760 | 8470 |
| CC(C)C[C@H](NC(=O)[C@H](Cc1ccccc1)NC(=O)CN)C(=O)N[C@@H](CC(N)=O)C(=O)N[C@@H](CCC(=O)O)C(=O)N[C@@H](CC(=O)O)C(=O)N[C@@H](Cc1c[nH]cn1)C(=O)N[C@@H](Cc1c[nH]c2ccccc12)C(=O)N[C@@H](Cc1ccccc1)C(=O)N[C@@H](CO)C(=O)N[C@@H](CCCNC(=N)N)C(=O)N[C@@H](CCC(=O)O)C(=O)N[C@@H](CC(N)=O)C(=O)N[C@@H](CO)C(=O)N[C@@H](Cc1ccc(O)cc1)C(=O)N[C@@H](CO)C(=O)NCC(=O)O [NS5 489-505] | 936 | 387 | 13900 |
| CC(C)C[C@H](N)C(=O)N[C@H](C(=O)N[C@@H](Cc1ccc(O)cc1)C(=O)N[C@@H](CCC(N)=O)C(=O)N[C@@H](CC(N)=O)C(=O)N[C@@H](CCCCN)C(=O)N[C@H](C(=O)N[C@H](C(=O)N[C@@H](CCCCN)C(=O)N[C@H](C(=O)N[C@@H](CCC(N)=O)C(=O)N[C@@H](CCCNC(=N)N)C(=O)N1CCC[C@H]1C(=O)N[C@H](C(=O)N1CCC[C@H]1C(=O)N[C@@H](CCCCN)C(=O)NCC(=O)O)[C@@H](C)O)C(C)C)C(C)C)C(C)C)[C@@H](C)O [NS5 570-586] | 28 | 4570 | 13 |
| CC[C@H](C)[C@H](NC(=O)[C@@H](NC(=O)[C@H](CC(=O)O)NC(=O)[C@H](CCSC)NC(=O)[C@@H](NC(=O)[C@@H](NC(=O)CNC(=O)[C@H](CCCCN)NC(=O)[C@@H]1CCCN1C(=O)[C@@H](NC(=O)[C@@H]1CCCN1C(=O)[C@H](CCCNC(=N)N)NC(=O)[C@H](CCC(N)=O)NC(=O)[C@@H](NC(=O)[C@H](CCCCN)NC(=O)[C@@H](NC(=O)[C@@H](N)C(C)C)C(C)C)C(C)C)[C@@H](C)O)[C@@H](C)O)C(C)C)[C@@H](C)CC)C(=O)O [NS5 576-592] | 84 | 2910 | 108 |
| CC[C@H](C)[C@H](NC(=O)[C@H](CC(=O)O)NC(=O)[C@H](CCSC)NC(=O)[C@@H](N)C(C)C)C(=O)N[C@H](C(=O)N[C@@H](CO)C(=O)N[C@@H](CCCNC(=N)N)C(=O)N[C@@H](CCCCN)C(=O)N[C@@H](CC(=O)O)C(=O)N[C@@H](CCC(N)=O)C(=O)N[C@@H](CCCNC(=N)N)C(=O)NCC(=O)N[C@@H](CO)C(=O)NCC(=O)N[C@@H](CCC(N)=O)C(=O)N[C@H](C(=O)NCC(=O)O)C(C)C)[C@@H](C)CC [NS5 588-604] | 17100 | 4260 | 6240 |
| CC[C@H](C)[C@H](NC(=O)[C@@H](N)CCCCN)C(=O)N[C@H](C(=O)N[C@@H](CCC(N)=O)C(=O)N[C@@H](Cc1c[nH]c2ccccc12)C(=O)N[C@@H](CC(C)C)C(=O)N[C@@H](CCC(=O)O)C(=O)N[C@H](C(=O)N[C@@H](CCCCN)C(=O)NCC(=O)N[C@H](C(=O)N[C@@H](CCC(=O)O)C(=O)N[C@@H](CCCNC(=N)N)C(=O)N[C@@H](CC(C)C)C(=O)N[C@@H](CCCCN)C(=O)N[C@@H](CCCNC(=N)N)C(=O)N[C@@H](CCSC)C(=O)O)C(C)C)[C@@H](C)O)[C@@H](C)O [NS5 642-658] | 5.1 | 12200 | 15300 |
| CC[C@H](C)[C@H](NC(=O)[C@H](C)NC(=O)[C@@H](N)CCSC)C(=O)N[C@@H](CO)C(=O)NCC(=O)N[C@@H](CC(=O)O)C(=O)N[C@@H](CC(=O)O)C(=O)N[C@@H](CS)C(=O)N[C@H](C(=O)N[C@H](C(=O)N[C@@H](CCCCN)C(=O)N1CCC[C@H]1C(=O)N[C@H](C(=O)N[C@@H](CC(=O)O)C(=O)N[C@@H](CC(=O)O)C(=O)N[C@@H](CCCNC(=N)N)C(=O)N[C@@H](Cc1ccccc1)C(=O)O)[C@@H](C)CC)C(C)C)C(C)C [NS5 658-674] | 1540 | 1930 | 19400 |
| CC[C@H](C)[C@H](N)C(=O)N[C@@H](CC(=O)O)C(=O)N[C@@H](CC(=O)O)C(=O)N[C@@H](CCCNC(=N)N)C(=O)N[C@@H](Cc1ccccc1)C(=O)N[C@@H](C)C(=O)N[C@@H](CC(N)=O)C(=O)N[C@@H](C)C(=O)N[C@@H](CC(C)C)C(=O)N[C@@H](CC(C)C)C(=O)N[C@@H](C)C(=O)N[C@@H](CC(C)C)C(=O)N[C@@H](CC(N)=O)C(=O)N[C@@H](CC(=O)O)C(=O)N[C@@H](CCSC)C(=O)NCC(=O)N[C@@H](CCCCN)C(=O)O [NS5 670-686] | 478 | 7500 | 971 |
